From PubChem BioAssay AID179 (DTP/NCI, 2004) come the findings set out here.

Molecules are shown by their SMILES. The source made the active and inactive calls.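 How the source made its calls: active means compounds giving half or more protection of infected cells from virus-caused growth loss, again on retest; inactive means the rest.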

The experiment has as its system CEM cells HIV-1 protection, formazan growth assay. Kind of experiment: NCI AIDS Antiviral Assay. The following applies: for IC50: measured here: growth of uninfected CEM cells. In a few lines: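 CEM (human) cells, HIV-1 infected vs uninfected, 5-point dosing, formazan growth read-out. Retest threshold 50% protection.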

With `OCc1nnn(-c2ccccc2)c1CO`, the EC50 was above 200 µM and the IC50 is above 200 µM.
Regarding `CC1(C(=O)O)CCC[C@@]2(C)C1CC[C@@]1(C)c3cocc3CCC21` (stereo not given in full), the outcome was inactive.
Consider `O=C(OCCOCCO)c1ccccc1-c1c2cc(I)c(=O)c(I)c-2oc2c(I)c(O)c(I)cc12`, for which the EC50 is above 200 µM and the concentration for half-maximal inhibition (IC50) came out at 5.13 µM.
For `CC/C(=N/OC(=O)NC)c1ccccc1` the same measures were above 200 µM and above 200 µM.
Consider `CCOC(=O)c1cnc2ccc(C)cn2c1=O`, for which the outcome was inactive.
On to `Cc1cc(=O)[nH]c(NNC(C#N)c2ccccc2O)n1` (stereo not given), for which the EC50 was above 182 µM and the half-maximal inhibitory concentration (IC50) came to 0.38 µM.
For `N#CCCN(c1ccc(-c2nnc(NC(=O)CNNC(=O)CC(=O)Nc3ccccc3)s2)cc1)S(=O)(=O)c1ccccc1` the same measures were above 41.7 µM and above 41.7 µM.
For `COc1cc2c3cc1Oc1c(O)c(OC)cc4c1C(Cc1ccc(O)c(c1)Oc1ccc(cc1)CC3N(C)CC2)N(C)CC4` (stereo not given), the outcome was inactive.
Turning to `Cc1ccc(C)c(C(=O)CC2OC(O)C(Cl)C2Cl)c1` (stereo not given), the EC50 was above 117 µM and the IC50 turned out to be 64.6 µM.
For `COc1cccc(/C=C2\C(=O)N(C(=O)c3ccc(NC(C)=O)cc3)N=C2C)c1` the same measures were above 36.3 µM and above 36.3 µM.
For `CCOP(=O)(OCC)/C(C#N)=C/c1ccc(N(C)C)cc1` the same measures were above 813 µM and 437 µM.
For `CN1N=C(N)c2cn(C3OC(COP(=O)(O)O)C(O)C3O)c3ncnc1c23` (stereo not given) the same measures were above 57.5 µM and 21.4 µM.
`N#C/C(=C\c1ccc(O)c(O)c1)C(=O)NCCCCCNC(=O)/C(C#N)=C/c1ccc(O)c(O)c1`: the EC50 was above 200 µM and the 50% inhibitory concentration (IC50) is 11.5 µM.
For `CC1CN1P(=O)(OCCC#N)N1CC1C` (stereo not given) the same measures were above 200 µM and above 200 µM.
As to `C/C(CC(=O)Nc1cccc([N+](=O)[O-])c1)=N\NC(=O)CC#N`, the EC50 was above 832 µM and the IC50 worked out at 447 µM.
Consider `Clc1ccc(NC(Nc2ccc(Cl)cc2)C(Cl)(Cl)Cl)cc1`, for which the result was inactive.
With `Cc1cn(C2CC(NC(=O)N(C)O)C(CO)O2)c(=O)[nH]c1=O` (stereo not given), the EC50 was above 200 µM and the IC50 was above 200 µM.
For the molecule `CCN(CC)CCNC(=O)c1nn(C)c(=S)[nH]c1=S`, the outcome was inactive.
Consider `CC1=C(C(=O)CC(=O)C(=O)Nc2cc(C)ccc2C)Sc2ccccc2N1`, for which the EC50 is above 10 µM and the 50% inhibitory concentration (IC50) is above 10 µM.
For the molecule `Cc1cccc2[nH]c3cc(O)cc(O)c3c(=O)c12`, the EC50 is above 200 µM and the IC50 is 10.5 µM.
For `Clc1ccc(Cl)c2[s+]snc12` the same measures were above 14.5 µM and above 14.5 µM.
Take `CCCNC(=O)Cn1c2c(c3ccccc31)CCCC2`: the EC50 was above 200 µM and the IC50 is 69.2 µM.
For `O=C(/C=C/c1ccccc1)NC1C=Nc2ccccc2NC1=O` (stereo not given) the same measures were 148 µM and above 200 µM.
In the same order, the values of `CCOC(=O)C1=c2[nH]c(O)c(C(=O)OCC)c2=NC1=O` are above 5.13 µM and above 5.13 µM.
On to `COc1ccc(-n2c(=O)n(-c3ccccc3)c(=O)n2-c2ccc(OC)cc2)cc1`, for which the EC50 is above 200 µM and the IC50 was above 200 µM.
Regarding `O=C1/C(=C/c2ccc(Cl)c(Cl)c2)CNC/C1=C\c1ccc(Cl)c(Cl)c1`, the EC50 was above 16.2 µM and the half-inhibitory concentration (IC50) came to 8.71 µM.
For `COCCOC(=O)C1=C(O)c2ccccc2S(=O)(=O)N1C` the same measures were above 794 µM and 562 µM.
For the molecule `SC1N=C(c2ccccc2)N2C(S)N=C(c3ccccc3)N12` (stereo not given), the EC50 was above 200 µM and the IC50 was found to be 83.2 µM.
As for `CCCCCCCCCCCOC(=S)NC(C)C`, the result was inactive.
In the case of `Cc1c2[nH]c3ccc(Br)cc3c2c(C)c2[nH]ccc(=O)c12`, the EC50 is above 3.31 µM and the IC50 was above 3.31 µM.
`COc1ccc(NCC/C=C\[Si](C)(C)C)cc1`: the result was inactive.
On to `O=[N+]([O-])c1c(/C=N/Nc2ccccc2)oc(-c2ccc3c(c2)OCO3)c1-c1ccc2c(c1)OCO2`, for which the EC50 is above 21.4 µM and the IC50 is 3.98 µM.
For `CNC(=O)CCC(NC(C)=O)C(=O)NC(Cc1ccc(NC(=O)CCCCC(C)=O)cc1)C(=O)NC(CCC(=O)NC)C(=O)NC` (stereo not given) the same measures were above 200 µM and above 200 µM.
For `CC(=O)c1ccc(NC(=O)/C(=N\NC(N)=O)C(C#N)CC(C)(C)C=O)cc1` (stereo not given) the same measures were above 490 µM and above 490 µM.
For `C=CCn1c(N)c(N=O)c(=O)n(CC)c1=O` the same measures were above 200 µM and above 200 µM.
Regarding `CC1CC[Si](C)(C)CC12C(=O)NC(=O)NC2=O` (stereo not given), the EC50 was above 200 µM and the concentration for half-maximal inhibition (IC50) is above 200 µM.
As for `NC(=O)C(=O)n1ncc(Cl)c(Cl)c1=O`, the EC50 was above 30.9 µM and the 50% inhibitory concentration (IC50) was above 30.9 µM.
As to `CNc1ncnc2c1ncn2C1OC(CO)C(O)C1O` (stereo not given), the outcome was inactive.
As to `C=CCCC(=O)C(Cc1ccccc1OC)C(=O)OC` (stereo not given), the EC50 is above 129 µM and the IC50 is above 129 µM.
Consider `O=S1(=O)OCCOS(=O)(=O)C1(Br)Br`, for which the EC50 was above 363 µM and the IC50 is above 363 µM.
With `C=C1CC(COc2cc(Cl)nc(N)n2)C1`, the EC50 was above 200 µM and the concentration for half-maximal inhibition (IC50) came out at 24.5 µM.
Turning to `O=C(O)c1cc(Sc2ccc([N+](=O)[O-])c(C(=O)O)c2)ccc1[N+](=O)[O-]`, the EC50 is above 200 µM and the 50% inhibitory concentration (IC50) is above 200 µM.
For the molecule `COc1ccc(/C(=N\NC(=O)NN)C(c2ccc(OC)cc2)C2(O)C(=O)Nc3c(Cl)cc(Cl)cc32)cc1` (stereo not given), the EC50 is above 9.55 µM and the IC50 is above 9.55 µM.
For the molecule `NC(=O)NN/C=C(/C=Nc1ccccc1)[N+](=O)[O-]`, the EC50 is above 105 µM and the concentration for half-maximal inhibition (IC50) is above 105 µM.
With `Cc1cc(NS(=O)(=O)c2ccc(NC(=O)c3cccc4c(NNc5ccc(S(=O)(=O)N=C(N)N)cc5)c5ccccc5nc34)cc2)no1`, the EC50 was above 158 µM and the IC50 came to 63.1 µM.
In the same order, the values of `COC(=O)c1cc(C(=O)O)c(=O)n2ccccc12` are above 200 µM and 174 µM.
For `CC(C)=CC[P+](CCC[P+](CC=C(C)C)(c1ccccc1)c1ccccc1)(c1ccccc1)c1ccccc1` the same measures were above 57.5 µM and above 57.5 µM.
In the case of `C=CCn1c(-c2ccc([N+](=O)[O-])cc2)csc1=N`, the EC50 is above 200 µM and the 50% inhibitory concentration (IC50) is 26.3 µM.
For `Cc1ccc(/C(O)=C/c2nc3ccccc3s/c2=N/CS(=O)(=O)c2ccc(C)cc2)cc1` the same measures were above 200 µM and above 200 µM.
In the same order, the values of `CCC1(c2ccc3ccccc3c2)Oc2ccccc2-n2cccc2C1=O` (stereo not given) are 1.17 µM and 91.2 µM.
As to `CN(C)[C@@H]1C(=O)C(C(=O)NCNc2cccc(C(=O)O)c2C(=O)O)=C(O)[C@@]2(O)C(=O)C3=C(O)c4c(O)cccc4[C@@](C)(O)[C@H]3C[C@@H]12`, the EC50 was above 5.89 µM and the IC50 was above 5.89 µM.
On to `C1=Cc2cccc3occ(c23)C=C1`, for which the EC50 is above 200 µM and the half-inhibitory concentration (IC50) came out at 28.8 µM.
For the molecule `O=c1c(O)c(O)c1=O`, the outcome was inactive.
As for `CCOC(=O)c1sc2c(c1OC(=O)c1ccc(Cl)cc1Cl)c(=O)n(-c1ccccc1)c(=S)n2-c1ccccc1`, the EC50 is above 200 µM and the IC50 turned out to be 0.0871 µM.
For `CC1OC(OC2C(Oc3cc(O)c4c(c3)O[C@H](c3ccc(O)cc3)CC4=O)OC(CO)C(O)C2O)C(O)C(O)C1O` (stereo not given in full) the same measures were above 200 µM and above 200 µM.
For `CCCCCCCCCCCCCCCCOC1OC(CS(=O)(=O)O)C(O)C(O)C1O` (stereo not given) the same measures were above 138 µM and 40.7 µM.
For `Cc1ccc(/C=C2\N=C(N3CCOCC3)NC2=O)cc1`, the EC50 is above 200 µM and the half-maximal inhibitory concentration (IC50) was above 200 µM.
With `N#Cc1c[nH]c(=O)[nH]c1=O`, the EC50 was above 200 µM and the IC50 is above 200 µM.
With `c1ccc(SC(CNCCc2ccco2)c2ccc3c(c2)OCO3)cc1` (stereo not given), the EC50 was above 200 µM and the 50% inhibitory concentration (IC50) was found to be 26.9 µM.
For the molecule `COc1ccccc1CO[C@]1(C)CNCC(C)(C)NC(=O)[C@](C)(OCc2ccccc2OC)CNCC(C)(C)NC1=O`, the EC50 is above 200 µM and the IC50 stood at 91.2 µM.
Regarding `CC1(c2ccccc2)CC(c2ccccc2)=NO1` (stereo not given), the EC50 was above 57.5 µM and the 50% inhibitory concentration (IC50) was above 57.5 µM.
As to `O=c1[nH]c(=O)n(COCc2ccccc2)c2ccc(Br)cc12`, the EC50 was above 200 µM and the IC50 was above 200 µM.
Regarding `O=C1Cc2nc(CO)c(CO)c(CO)c2CO1`, the EC50 was above 1050 µM and the IC50 is above 1050 µM.
As to `CC1(C)CC(=O)C2=C(C1)NC1=C(C2)C(=O)CC(C)(C)C1`, the EC50 is above 200 µM and the IC50 was above 200 µM.
Consider `CC(C)[C@H]1CO[C@]2(C)[C@@H]3CN(Cc4ccccc4)C[C@@H]3C(=O)N12`, for which the EC50 is above 214 µM and the half-inhibitory concentration (IC50) was above 214 µM.
Consider `COc1cc(C2c3cccc4cccc(c34)C3CCC(=O)N32)cc(O)c1O` (stereo not given), for which the half-maximal effective concentration (EC50) is 3.02 µM and the IC50 was 9.33 µM.
For `C/C(=N/N=C(\[O-])c1ccncc1)C(F)(F)F.C/C(=N\N=C(/[O-])c1ccncc1)C(F)(F)F.[Cu+2]` the same measures were above 200 µM and 18.2 µM.
As for `COc1ccc(/C(C#N)=C/c2ccccc2OC)cc1`, the EC50 is above 200 µM and the IC50 is 11.5 µM.
For `Cc1cc(C)nc(NS(=O)(=O)c2ccc(NC(=O)c3cccc4c(NNc5ccc(S(=O)(=O)N=C(N)N)cc5)c5ccccc5nc34)cc2)n1` the same measures were above 100 µM and 50.1 µM.
Regarding `O=C1C=C(C2=C(C3=CC(=O)c4ccccc4C3=O)C(=O)c3ccccc3C2=O)C(=O)c2ccccc21`, the EC50 was above 100 µM and the 50% inhibitory concentration (IC50) was determined as 1.38 µM.
Turning to `COc1ccc(-c2cc(=O)c3ccc(O)cc3o2)cc1OC`, the EC50 was above 100 µM and the IC50 is 24 µM.
In the same order, the values of `CC#CC(=O)Nc1ccccc1CC(c1c[nH]c2ccccc12)c1c[nH]c2ccccc12` are above 35.5 µM and 19.1 µM.
